Reference: patent publication US20060019270A1, “Global DNA methylation assessment using bisulfite PCR” (Board of Regents The University of Texas System, priority 2004, published 2006)

Key:
[1] = test system: Alu element methylation in Hct116 cells; test: COBRA (MboI) of Alu repetitive element PCR, Hct116 cells treated with DAC; type: cell-based, human; conditions: 5 μM DAC for three days, 29% prior to treatment
Experimental: (§1) Hct116, RKO and SW48, colon cancer cell lines (American Type Culture Collection, Manassas, Va.), were cultured using standard methods. Cells were treated with 5 μM 5-aza-2′deoxycytidine (DAC) for three days prior to being harvested. DNA from cell lines and peripheral blood leukocytes was extracted using phenol-chloroform extraction methods well known to one with skill on the art.
(§2) Bisulfite modification of genomic DNA is known in the art (see Clark et. al, 1994). In brief, 1.5 μg prepared 10 mM hydroquinone (Sigma) and 520 μl of 3M Sodium Bisulfite (Sigma) at pH=5.0 were added and mixed. The samples were overlayed with mineral oil to prevent evaporation and incubated at 50° C. for 16 hours. […] Bisulfite treated DNA was stored at −20° C. until ready for use.
(§3) Methylation analysis of Alu repetitive elements was performed initially by the COBRA assay. […] The digested PCR product was then separated by polyacrylamide gel electrophoresis or the PCR products were quantitated using a capillary electrophoresis system, an Agilent 2100 Bioanalyzer (Agilent Technologies, Palo Alto, Calif.).
(§4) In order to test whether Alu element […] LINE-1 methylation could approximate global methylation, COBRA, restriction digestion of the repetitive element PCR product, was used to quantitate DNA methylation in cell lines treated with 5-aza-2′deoxycytidine (DAC) (FIG. 3). […]

[2] = test system: Alu element methylation in RKO cells; test: COBRA (MboI) of Alu repetitive element PCR, RKO cells treated with DAC; type: cell-based, human; conditions: 5 μM DAC for three days, decrease from 26%
Experimental: as §1, §2, §3, §4

[3] = test system: Alu element methylation in SW48 cells; test: COBRA (MboI) of Alu repetitive element PCR, SW48 cells treated with DAC; type: cell-based, human; conditions: 5 μM DAC for three days, decrease from 28%
Experimental: as §1, §2, §3, §4

[4] = test system: LINE-1 methylation in Hct116 cells; test: COBRA (HinfI) of LINE-1 PCR, Hct116 cells treated with DAC; type: cell-based, human; conditions: 5 μM DAC for three days, 77% prior to treatment
Experimental: as §1
Bisulfite modification of genomic DNA is known in the art (see Clark et. al, 1994). In brief, 1.5 μg prepared 10 mM hydroquinone (Sigma) and 520 μl of 3M Sodium Bisulfite (Sigma) at pH=5.0 were added and mixed. The samples were overlayed with mineral oil to prevent evaporation and incubated at 50° C. for 16 hours. The bisulfite treated DNA was isolated using Wizard DNA Clean-Up System (Promega). The DNA was eluted by 50 μl of warm water and 5.5 μl of 3M NaOH were added for 5 minutes. The DNA was ethanol precipitated with glycogen as a carrier and resuspended in 20 μl water. Bisulfite treated DNA was stored at −20° C. until ready for use. […]
In order to test whether Alu element […] LINE-1 methylation could approximate global methylation, COBRA, restriction digestion of the repetitive element PCR product, was used to quantitate DNA methylation in cell lines treated with 5-aza-2′deoxycytidine (DAC) (FIG. 3). […] Thus both assays reliably detected inhibition of methylation induced by DAC. […]

[5] = test system: leukemia (AML/MDS, CML/CMML) patients; test: Clinical response in the High Dose and Low Dose decitabine studies; type: in vivo, human
Experimental: FIG. 6 illustrates treatment schema of patient samples. Patients were treated as part of a Phase II study of Decitabine which was given initially a dose of 90 mg/m2 twice daily for 5 consecutive days. This dose was later decreased to 50 mg/m2 twice daily due to toxicity. In this “High” Dose Study a total dose of 500-900 mg/m2 of decitabine was given over a 5 day period. Peripheral blood specimens were collected on day 0 or 1 prior to treatment, days 2-4 during treatment, and on days 5 or 6 after the completion of treatment. In the second study, a Phase I strategy of “Low” Dose Decitabine was used. This study was designed to take advantage of Decitabine's demethylating properties. Escalating doses of Decitabine of 5, 10, 15 and 20 mg/m2 were given as ten daily doses over a two week period. The total dose delivered was only 50 to 200 mg/m2 over a 14 day period. Peripheral blood specimens were collected on day 0 or 1 prior to treatment, and during days 2-14 of treatment;
Patient samples were collected from patients treated as part of two clinical studies using 5-aza-2′deoxycytidine (decitabine) as a single agent. The first study treated patients with 50-90 mg/m2 of decitabine twice daily for 5 consecutive days (See FIG. 8). The second study was a phase I study which attempted to capitalize on the demethylating properties of decitabine by using a lower dose of decitabine, 5-20 mg/m^2 once daily, for a longer period of time, 10 days over a two week period (See FIG. 8). Peripheral blood samples were collected prior to, during and after treatment. Donation of blood samples for laboratory studies was voluntary and […] were collected from 41 patients participating in both studies (See Table 4). Due to competing protocols and the availability of patients at the time of the two respective studies the majority of the patients enrolled on DM−, the “High-Dose” study were CML patients and the majority of the patients enrolled on DM−, the “Low-Dose” study were AML or High Risk MDS patients.
Donation of peripheral blood for laboratory analysis was voluntary, and only some of the patients enrolled on the two studies participated. A total of 134 samples were collected for analysis (52 in the High Dose Study and 82 in the Low Dose Study). The majority of patients treated in the High Dose Study were CML patients, however, the majority of patients treated in the Low Dose Study were AML or High risk MDS patients.

[6] = Total of both studies, 41 patients

Nc1ncn([C@H]2C[C@H](O)[C@@H](CO)O2)c(=O)n1 [decitabine, 5-aza-2′-deoxycytidine]
Alu element methylation after treatment with DAC [1]: 16%
Alu element methylation after treatment with DAC [2]: 21%
Alu methylation after treatment with DAC [3]: 27%
LINE-1 methylation after treatment with DAC [4]: 17%
Response Rate ([5]; High Dose Study, 18 patients): 39%
Treatment Response CR/PR (patients) ([5]; High Dose Study, 18 patients): 7
Treatment Response No Response (patients) ([5]; High Dose Study, 18 patients): 11
Response Rate ([5]; Low Dose Study, 23 patients): 35%
Treatment Response CR/PR (patients) ([5]; Low Dose Study, 23 patients): 7
Treatment Response No Response (patients) ([5]; Low Dose Study, 23 patients): 13
Response Rate [5, 6]: 34%
Treatment Response CR/PR (patients) [5, 6]: 14
Treatment Response No Response (patients) [5, 6]: 24
